Consider 23 compounds from patent US10023557B2 (LifeSci Pharmaceuticals, Inc., priority 2015, dated 2018).

For assay [1], the target named is cellular kallikrein activity (Homo sapiens (Human), UniProt P03952). Nature of the assay: In vitro cellular assay (contact assay): kallikrein activity in ellagic acid-activated human plasma, Z-FR-2-AMC substrate. It is filed as biochemical. To be noted: human plasma activated with ellagic acid, 37° C. How it is done:
The ability of the compounds disclosed herein to inhibit cellular kallikrein activity was quantified and the respective EC50 value was determined.
All dilutions were prepared in an assay buffer comprising 50 mM Tris-HCl pH 7.2, 150 mM NaCl, and 0.01% Triton X-100.
The ten solutions of the test compounds, prepared by serial dilution, were further diluted 50-fold in the assay buffer.
Human plasma is thawed on ice and centrifuged for 15 min at 4° C. to remove platelets. A 1 mM stock solution of ellagic acid is diluted to 8 μM and mixed with human plasma, after removing platelets, at a ratio of 1:0.8.
A 22.5 μL volume of the final mixture of human plasma and ellagic acid was added to a 96-well microwell plate and the plate was incubated for 15 min at 37° C.
The CINH inhibitor at various concentrations, prepared by serial dilutions as described above, were added to the inhibitor control wells. […] Each CINH concentration is tested in duplicates.
The test compounds at various concentrations, also prepared by serial dilutions as described above, are added to the test wells. […] Each test compound concentration was tested in duplicates.
In addition to the inhibitor control and test wells, the 96 well assay plate includes positive control wells which contained the mixture of human plasma and ellagic acid without C1NH inhibitor or test compounds, and background wells which contained neither the mixture of human plasma and ellagic acid nor the test compounds. The total volume of liquid in positive control and background wells was brought up to 35 μL, using the assay buffer.
The assay plate containing C1NH inhibitors and test compounds mixed with human plasma and ellagic acid and appropriate controls was incubated at 37° C. for 5 min. […] The reagents were mixed well by shaking the plate gently for 30 sec.
The enzyme reaction was quantified by immediate kinetic reading of the assay plate using excitation/emission wavelengths of 330 nm/440 nm respectively. Fluorescence intensity was recorded for 60 min, using a time interval of 43 sec.
The inhibition activity of the test compounds were evaluated using the EC50 values, calculated according to the dose-response curve of the test compounds, fitted using the “log(inhibitor)−response (variable slope)” equation in GraphPadPrism software (GraphPad Software, Inc.).
The percentage inhibition was calculated using the following equation:
[formula] where, Mean (BG) is the average value of the fluorescence intensity of the background wells and Mean (PC) is the average value of the fluorescence intensity of the positive control wells.
Table 4 provides the EC50 values of various compounds disclosed herein.

For the next assay, the target named is human plasma kallikrein (Homo sapiens (Human), UniProt P03952). Kind of assay: In vitro enzyme inhibition of human plasma kallikrein (PFR-AMC cleavage). It is filed as biochemical. The conditions noted are these: Pro-Phe-Arg-AMC substrate, 37° C., read-out: hPK IC50. The method in brief:
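Human plasma kallikrein and compound, diluted in 50 mM Tris-HCl pH 7.5, 150 mM NaCl, 0.01% Triton X-100, preincubated 5 min at 37 °C before PFR-AMC was added.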

Structures are written as SMILES.

A word on the EC50: it is the concentration that produces a half-maximal response. Read a high EC50 as lower potency in that assay. Broadly, the IC50 is the concentration that gives 50% inhibition.

Chain of human plasma kallikrein (P03952 391-638): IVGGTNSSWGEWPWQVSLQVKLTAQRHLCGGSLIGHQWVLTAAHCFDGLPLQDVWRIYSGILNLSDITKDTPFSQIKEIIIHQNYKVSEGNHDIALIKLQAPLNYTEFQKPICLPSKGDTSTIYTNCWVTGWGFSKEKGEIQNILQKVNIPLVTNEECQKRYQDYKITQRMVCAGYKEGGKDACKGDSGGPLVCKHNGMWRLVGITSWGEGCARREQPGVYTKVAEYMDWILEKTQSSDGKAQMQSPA
Chain of human plasma kallikrein (P03952 20-390 partner): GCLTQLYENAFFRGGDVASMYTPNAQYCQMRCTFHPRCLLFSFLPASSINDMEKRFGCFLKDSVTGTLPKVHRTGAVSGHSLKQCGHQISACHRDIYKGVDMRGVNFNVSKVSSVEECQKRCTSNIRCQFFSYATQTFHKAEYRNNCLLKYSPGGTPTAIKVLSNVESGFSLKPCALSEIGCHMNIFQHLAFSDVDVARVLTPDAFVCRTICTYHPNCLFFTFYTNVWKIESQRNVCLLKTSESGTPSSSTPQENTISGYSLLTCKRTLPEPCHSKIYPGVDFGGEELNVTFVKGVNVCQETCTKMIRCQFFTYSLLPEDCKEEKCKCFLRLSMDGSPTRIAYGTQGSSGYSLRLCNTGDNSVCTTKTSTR
Chain of cellular kallikrein activity (P03952 391-638): as the sequence (P03952 391-638) above
Chain of cellular kallikrein activity (P03952 20-390 partner): as the sequence (P03952 20-390 partner) above

`Nc1nccc2cc(CNC(=O)c3ccnc(Cc4ccc5ncc(Cl)cc5c4)c3)c(F)cc12` [Example 180, N-((1-amino-7-fluoroisoquinolin-6-yl)methyl)-2-((3-chloroquinolin-6-yl)methyl)isonicotinamide]: the EC50 in assay [1] was in the range of 100 to 1000 nM. In addition, the IC50 on human plasma kallikrein is under 100 nM.

With `Cc1cc2c(N)nccc2cc1CNC(=O)c1ccnc(Cc2ccc3ncc(Cl)cc3c2)c1` [Example 181, N-((1-amino-7-methylisoquinolin-6-yl)methyl)-2-((3-chloroquinolin-6-yl)methyl)isonicotinamide], in assay [1], the EC50 was under 100 nM. On human plasma kallikrein, the IC50 is under 100 nM.

On to `Nc1nccc2cc(CNC(=O)c3ccnc(Cc4ccc5ncc(C(F)(F)F)cc5c4)c3)c(F)cc12` [Example 182, N-((1-amino-7-fluoroisoquinolin-6-yl)methyl)-2-((3-(trifluoromethyl)quinolin-6-yl)methyl)isonicotinamide], for which, in assay [1], the EC50 was in the range of 100 to 1000 nM. Moreover, at human plasma kallikrein, the half-maximal inhibitory concentration (IC50) is under 100 nM.

`Cc1cc2c(N)nccc2cc1CNC(=O)c1ccnc(Cc2ccc3ncc(C(F)(F)F)cc3c2)c1` [Example 183, N-((1-amino-7-methylisoquinolin-6-yl)methyl)-2-((3-(trifluoromethyl)quinolin-6-yl)methyl)isonicotinamide]: in assay [1], the EC50 was under 100 nM. Moreover, the IC50 at human plasma kallikrein was under 100 nM.

Regarding `Cc1c(CNC(=O)c2ccnc(Cc3ccc4ncc(C(F)(F)F)cc4c3)c2)ccc2c(N)nccc12` [Example 184, N-((1-amino-5-methylisoquinolin-6-yl)methyl)-2-((3-(trifluoromethyl)quinolin-6-yl)methyl)isonicotinamide], in assay [1], the EC50 is under 100 nM. Also, the IC50 at human plasma kallikrein was under 100 nM.

Compound `Nc1nc(C(F)(F)F)n2cc(CNC(=O)c3ccnc(Cc4ccc5ncc(Cl)cc5c4)c3)ccc12` [Example 186, N-((1-amino-3-(trifluoromethyl)imidazo[1,5-a]pyridin-6-yl)methyl)-2-((3-chloroquinolin-6-yl)methyl)isonicotinamide] yielded an EC50 in assay [1] of under 100 nM. Besides, the IC50 at human plasma kallikrein is under 100 nM.

For the compound `Cc1cc(N)nc(C)c1CNC(=O)c1ccnc(Cc2cnc3ncc(Cl)cc3c2)c1` [Example 204, N-((6-amino-2,4-dimethylpyridin-3-yl)methyl)-2-((6-chloro-1,8-naphthyridin-3-yl)methyl)isonicotinamide], the EC50 in assay [1] was under 100 nM. Also, the IC50 at human plasma kallikrein was under 100 nM.

For `Cc1cc(N)nc(C)c1CNC(=O)c1cc(Cc2ccc3ncc(Cl)cc3c2)nc(C(N)=O)c1` [Example 208, N^4-((6-amino-2,4-dimethylpyridin-3-yl)methyl)-6-((3-chloroquinolin-6-yl)methyl)pyridine-2,4-dicarboxamide], in assay [1], the EC50 was under 100 nM. Besides, the IC50 at human plasma kallikrein is under 100 nM.

In assay [1], `Cc1cc(N)nc(C)c1CNC(=O)c1cc(Cc2ccc3ncc(Cl)cc3c2)nc(C(C)(C)O)c1` [Example 210, N-((6-amino-2,4-dimethylpyridin-3-yl)methyl)-2-((3-chloroquinolin-6-yl)methyl)-6-(2-hydroxypropan-2-yl)isonicotinamide] had an EC50 of under 100 nM. In addition, at human plasma kallikrein, the IC50 was under 100 nM.

`Cc1cc(N)nc(C)c1CNC(=O)c1cc(CN)nc(Cc2ccc3ncc(Cl)cc3c2)c1` [Example 211, N-((6-amino-2,4-dimethylpyridin-3-yl)methyl)-2-(aminomethyl)-6-((3-chloroquinolin-6-yl)methyl)isonicotinamide]: the EC50 in assay [1] was under 100 nM. Further, the IC50 on human plasma kallikrein was under 100 nM.

In assay [1], `Cc1cc(N)nc(C)c1CNC(=O)c1cc(CO)nc(Cc2ccc3ncc(Cl)cc3c2)c1` [Example 212, N-((6-amino-2,4-dimethylpyridin-3-yl)methyl)-2-((3-chloroquinolin-6-yl)methyl)-6-(hydroxymethyl)isonicotinamide] returned an EC50 of under 100 nM. Further, the IC50 on human plasma kallikrein is under 100 nM.

In assay [1], `Cc1cc(N)nc(C)c1CNC(=O)c1cc(CC#N)nc(Cc2ccc3ncc(Cl)cc3c2)c1` [Example 213, N-((6-amino-2,4-dimethylpyridin-3-yl)methyl)-2-((3-chloroquinolin-6-yl)methyl)-6-(cyanomethyl)isonicotinamide] gave an EC50 of under 100 nM. Further, the IC50 at human plasma kallikrein is under 100 nM.

The compound `Cc1cc(N)nc(C)c1CNC(=O)c1cc(CC(N)=O)nc(Cc2ccc3ncc(Cl)cc3c2)c1` [Example 214, N-((6-amino-2,4-dimethylpyridin-3-yl)methyl)-2-(2-amino-2-oxoethyl)-6-((3-chloroquinolin-6-yl)methyl)isonicotinamide] yielded an EC50 in assay [1] of under 100 nM. At human plasma kallikrein, the IC50 is under 100 nM.

Take `Cc1cc(N)nc(C)c1CNC(=O)c1ccnc(Cc2cc3cc(C(F)(F)F)cnc3[nH]2)c1` [Example 215, N-((6-amino-2,4-dimethylpyridin-3-yl)methyl)-2-((5-(trifluoromethyl)-1H-pyrrolo[2,3-b]pyridin-2-yl)methyl)isonicotinamide]: in assay [1], the EC50 lay within 100 to 1000 nM. Besides, at human plasma kallikrein, the IC50 is under 100 nM.

Consider `Cc1cc(N)nc(C)c1CNC(=O)c1ccnc(Cc2cc(N)c3ncc(Cl)cc3c2)c1` [Example 217, N-((6-amino-2,4-dimethylpyridin-3-yl)methyl)-2-((8-amino-3-chloroquinolin-6-yl)methyl)isonicotinamide], for which the EC50 in assay [1] is under 100 nM. Also, the IC50 on human plasma kallikrein was under 100 nM.

As to `Cc1cc(N)nc(C)c1CNC(=O)c1ccnc(Cc2cc(C(C)(C)O)c3ncc(Cl)cc3c2)c1` [Example 219, N-((6-amino-2,4-dimethylpyridin-3-yl)methyl)-2-((3-chloro-8-(2-hydroxypropan-2-yl)quinolin-6-yl)methyl)isonicotinamide], the EC50 in assay [1] was under 100 nM. Also, at human plasma kallikrein, the IC50 is under 100 nM.

Regarding `Cc1nc(N)ccc1CNC(=O)c1ccnc(Cc2cc(C(C)(C)O)c3ncc(Cl)cc3c2)c1` [Example 220, N-((6-amino-2-methylpyridin-3-yl)methyl)-2-((3-chloro-8-(2-hydroxypropan-2-yl)quinolin-6-yl)methyl)isonicotinamide], the EC50 in assay [1] is under 100 nM. The IC50 on human plasma kallikrein is under 100 nM.

In assay [1], `CC(C)(O)c1cc(Cc2cc(C(=O)NCc3cc4c(Cl)c[nH]c4cc3F)ccn2)cc2cc(Cl)cnc12` [Example 221, N-((3-chloro-6-fluoro-1H-indol-5-yl)methyl)-2-((3-chloro-8-(2-hydroxypropan-2-yl)quinolin-6-yl)methyl)isonicotinamide] displayed an EC50 of 100 to 1000 nM. Besides, the IC50 at human plasma kallikrein was under 100 nM.

As to `CC(C)(O)c1cc(Cc2cc(C(=O)NCc3ccc4[nH]cc(Cl)c4c3F)ccn2)cc2cc(Cl)cnc12` [Example 222, N-((3-chloro-4-fluoro-1H-indol-5-yl)methyl)-2-((3-chloro-8-(2-hydroxypropan-2-yl)quinolin-6-yl)methyl)isonicotinamide], the EC50 in assay [1] was in the range of 100 to 1000 nM. In addition, the IC50 on human plasma kallikrein is under 100 nM.

Consider `CC(C)(O)c1cc(Cc2cc(C(=O)NCc3cnc4[nH]cc(Cl)c4c3)ccn2)cc2cc(Cl)cnc12` [Example 223, N-((3-chloro-1H-pyrrolo[2,3-b]pyridin-5-yl)methyl)-2-((3-chloro-8-(2-hydroxypropan-2-yl)quinolin-6-yl)methyl)isonicotinamide], for which the EC50 in assay [1] is under 100 nM. Further, on human plasma kallikrein, the IC50 was under 100 nM.

On to `CC(C)(O)c1cc(Cc2cc(C(=O)NCc3ccc4c(N)nccc4c3)ccn2)cc2cc(Cl)cnc12` [Example 224, N-((1-aminoisoquinolin-6-yl)methyl)-2-((3-chloro-8-(2-hydroxypropan-2-yl)quinolin-6-yl)methyl)isonicotinamide], for which the EC50 in assay [1] was under 100 nM. Besides, the half-maximal inhibitory concentration (IC50) on human plasma kallikrein is under 100 nM.

In assay [1], `CC(C)(O)c1cc(Cc2cc(C(=O)NCc3n[nH]c4ccc(Cl)cc34)ccn2)cc2cc(Cl)cnc12` [Example 225, N-((5-chloro-1H-indazol-3-yl)methyl)-2-((3-chloro-8-(2-hydroxypropan-2-yl)quinolin-6-yl)methyl)isonicotinamide] gave an EC50 of 100 to 1000 nM. On human plasma kallikrein, the IC50 was under 100 nM.

Take `Cc1cc(N)nc(C)c1CNC(=O)c1ccnc(Cc2cnc3cc(F)c(Cl)cc3c2)c1` [Example 226, N-((6-amino-2,4-dimethylpyridin-3-yl)methyl)-2-((6-chloro-7-fluoroquinolin-3-yl)methyl)isonicotinamide]: the EC50 in assay [1] is under 100 nM. Further, on human plasma kallikrein, the IC50 is under 100 nM.
